According to ChEMBL document CHEMBL1141899, “QSAR studies on 1,2-dithiole-3-thiones: modeling of lipophilicity, quinone reductase specific activity, and production of growth hormone” (Bioorg Med Chem Lett, 2005):

Tests used:
[1] = target: NAD(P)H dehydrogenase [quinone] 1 (Homo sapiens) (UniProt P15559)
Description: Increased quinone reductase specific activity

[2] = physchem; details: octanol/water
Description: Partition coefficient (logP)

NAD(P)H dehydrogenase [quinone] 1 (Homo sapiens), sequence (P15559 whole entry): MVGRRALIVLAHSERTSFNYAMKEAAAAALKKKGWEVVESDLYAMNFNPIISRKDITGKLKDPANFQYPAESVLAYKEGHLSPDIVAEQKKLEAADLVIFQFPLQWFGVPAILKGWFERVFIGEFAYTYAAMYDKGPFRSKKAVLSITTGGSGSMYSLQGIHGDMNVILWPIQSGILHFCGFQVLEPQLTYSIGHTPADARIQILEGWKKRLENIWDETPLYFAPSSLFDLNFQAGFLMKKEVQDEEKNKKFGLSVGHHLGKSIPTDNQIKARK

| Compound | Log CDQR [1] | logP [2] |
| --- | --- | --- |
| S=c1cc(-c2ccccc2)ss1 | 1.3 | – |
| COc1ccc(-c2ssc(=S)c2C)cc1 | 1.58 | – |
| O=C(O)c1cc(=S)ss1 | 1.9 | 1.05 |
| NC(=O)c1cc(=S)ss1 | 1.3 | 0.01 |
| CC(C)(C)c1cc(=S)ss1 | 0.699 | 3.25 |
| S=c1ssc2c1CCCCCCCC2 | -0.602 | 2.53 |
| COc1ccc(-c2cc(=S)ss2)cc1 | 1.25 | – |
| Cc1c(-c2cnccn2)ssc1=S [OLTIPRAZ] | 1.34 | 2.79 |
| S=C1CC(c2cc(=S)ss2)SS1 (configuration not stated) | 0.342 | 1.8 |

Second part, the compound after the results:

| Log CDQR [1] | logP [2] | Compound |
| --- | --- | --- |
| 0.903 | – | CCc1cc(=S)ss1 |
| 1.34 | – | Cc1ssc(=S)c1C |
| 1.23 | 1.85 | Cc1cc(=S)ss1 |
| 0.301 | – | S=c1sscc1-c1ccccc1 |
| 1.08 | – | Cc1cssc1=S |
| 0.176 | – | S=c1ccss1 |
| 1.66 | 0.3 | NC(=O)c1cssc1=S |
| 1.38 | 1.33 | O=C(O)c1cssc1=S |
| 0.903 | – | CCc1cssc1=S |
